US20110288152A1, “PSMA BINDING LIGAND-LINKER CONJUGATES AND METHODS FOR USING” (Purdue Research Foundation, priority 2008, published 2011)
Starred links: 1 amine or outer side, 2 acyl side, 3 side chain; linkers in the order of their positions; H or OH if unused. Non-standard residues stand in square brackets, D forms with d. Residues, ends and D or L forms follow the SMILES beside them. Groups on a side chain read outwards from the residue. γGlu = O=C(O)[C@H](CCC(=O)[*:2])N[*:1]; Dap = NC[C@H](N)C(=O)O; Aoc = NCCCCCCCC(=O)O; CO = O=C([*:1])[*:2]

Legend:
PSMA on LNCaP cells [1] = molecular target: T1, PSMA on LNCaP cells (Homo sapiens, UniProt Q04609); test: Spacer-dependent binding studies of DUPA-Linker-99mTc compounds on LNCaP cells; settings: 37° C., 1 hour, 0 nM-1280 nM, read-out: Kd from cell bound radioactivity versus concentration of DUPA-Linker-99Tc imaging agents
T1 construct: LNCaP cells (a human prostate cancer cell line over-expressing PSMA); host or cells: LNCaP
Experimental: Cells were then incubated with increasing concentrations of SK60-99 mTc (zero atom spacer), SK62-99 mTc (7 atom spacer), SK28-99 mTc (14 atom spacer), SK38-99 mTc (16 atom spacer) and SK57-99 mTc (24 atom spacer) from 0 nM-1280 nM (triplicates for each concentration) in a 5%-CO2 atmosphere at 37° C. for 1 hour. Also, in separate plates, cells was incubated with 50 uM PMPA in a 5%-CO2 atmosphere at 37° C. for 30 minutes and then incubated with increasing concentration of SK60-99 mTc (zero atom spacer), SK62-99 mTc (7 atom spacer), SK28-99 mTc (14 atom spacer), SK38-99 mTc (16 atom spacer) and SK57-99 mTc (24 atom spacer) from 0 nM-1280 nM (triplicates for each concentration) in a 5%-CO2 atmosphere at 37° C. for 1 hour (competition studies; data not shown). […] The plot of cell bound radioactivity verses concentration of the radiolabeled compound was used to calculate the Kd value. The plot of % saturation verses concentration of the radiolabeled compound as well as the plot for Kd verses spacer length are shown (FIGS. 4 and 5).

PSMA on LNCaP cells [2] = molecular target: T1, PSMA on LNCaP cells; test: Quantification of PSMA molecules on LNCaP cells (cell bound radioactivity at saturation); type: cell-based; settings: for cell bound radioactivity at the saturation point: 1 hour
Experimental: Cells were then incubated with increasing concentrations of SK28-99 mTc from 0 nM-450 nM (triplicates for each concentration) in a 5%-CO2 atmosphere at 4° C. or at 37° C. for 1 hour. […] The radioactivity of a 30 nM sample of SK28-99 mTc (20 uL) was counted. At 4° C. (to prevent endocytosis of PSMA), the number of moles in the 30 nM sample=30 nM×20 uL=(30×10-9 mol/L)×(20×10-6 L)=6×10-13 mol. The number of atoms in the 30 nM sample=(6×10-13 mol)×(6.023×1023 atom/mol)=3.6×1011 atom. The radio count of 20 uL of the 30 nM sample=20477 cpm (cpm/atom=3.6×1011/20477=1.76×107). The cell bound radioactivity at the saturation point at 4° C.=12 000 cpm. The number of atoms at the saturation point=(1.76×107 atom)×(12 000 cpm). The number of cells/well=245,000.
The cell bound radioactivity at the saturation point at 37° C.=33,000 cpm (approximately three fold higher than at 4° C.).

PSMA on LNCaP cells [3] = molecular target: T1, PSMA on LNCaP cells; test: In vitro binding studies using LNCaP cells and SK28-99mTc, with and without excess PMPA; settings: 37° C., 1 hour, 0 nM-450 nM, read-out: Kd from cell bound radioactivity versus concentration
Experimental: Cells of one 24-well plate were incubated with increasing concentrations of SK28-99 mTc from 0 nM-450 nM (triplicates for each concentration) in a 5%-CO2 atmosphere at 37° C. for 1 hour. Cells of the second 24-well plate were incubated with 50 uM PMPA in a 5%-CO2 atmosphere at 37° C. for 30 minutes, then incubated with increasing concentrations of SK28-99 mTc from 0 nM-450 nM (triplicates for each concentration) in a 5%-CO2 atmosphere at 37° C. for 1 hour (competition study). […] The competition study was used to determine the binding specificity of the ligand (DUPA) to the PSMA (FIG. 1).
LNCaP cells (150,000 cells/well) were seeded onto 24-well Falcon plates and allowed to form confluent monolayers over 48 h. Spent medium in each well was replaced with fresh medium (0.5 mL) containing increasing concentrations of DUPA-99 mTc in the presence (▴) or absence (▪) of excess PMPA. After incubating for 1 h at 37° C., cells were rinsed with culture medium (2×1.0 mL) and tris buffer (1×1.0 mL) to remove any unbound radioactivity. After suspending cells in tris buffer (0.5 mL), cell bound radioactivity was counted using a γ-counter (Packard, Packard Instrument Company). The dissociation constant (KD) was calculated using a plot of cell bound radioactivity versus the concentration of the radiotracer using nonlinear regression in GraphPad Prism 4. Error bars represent 1 standard deviation (n=3). […]

PSMA = PSMA (Homo sapiens, UniProt Q04609); settings: urea PSMA ligands of formula drawing 51, R^1 varied; cited from earlier work
Sequence of PSMA (Q04609 whole entry, species assumed): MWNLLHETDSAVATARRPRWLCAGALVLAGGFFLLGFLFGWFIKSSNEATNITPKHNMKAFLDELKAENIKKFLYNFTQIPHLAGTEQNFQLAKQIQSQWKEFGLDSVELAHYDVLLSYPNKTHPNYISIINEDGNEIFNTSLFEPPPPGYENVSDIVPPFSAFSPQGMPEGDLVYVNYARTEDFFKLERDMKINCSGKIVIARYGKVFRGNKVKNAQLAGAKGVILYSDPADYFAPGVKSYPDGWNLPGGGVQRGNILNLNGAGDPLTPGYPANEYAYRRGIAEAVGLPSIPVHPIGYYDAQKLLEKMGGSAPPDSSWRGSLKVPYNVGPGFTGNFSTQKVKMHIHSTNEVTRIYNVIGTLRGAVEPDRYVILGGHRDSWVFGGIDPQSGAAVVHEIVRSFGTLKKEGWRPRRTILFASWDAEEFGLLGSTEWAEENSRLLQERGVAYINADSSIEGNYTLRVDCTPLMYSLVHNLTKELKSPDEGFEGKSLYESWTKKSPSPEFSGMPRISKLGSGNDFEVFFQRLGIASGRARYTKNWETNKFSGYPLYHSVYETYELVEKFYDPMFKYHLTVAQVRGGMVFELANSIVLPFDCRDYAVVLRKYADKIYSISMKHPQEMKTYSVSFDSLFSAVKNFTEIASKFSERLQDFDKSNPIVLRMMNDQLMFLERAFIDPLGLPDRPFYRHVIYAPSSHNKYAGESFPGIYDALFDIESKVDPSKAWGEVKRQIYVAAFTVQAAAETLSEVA

T1 sequence (Q04609 whole entry): as the sequence (Q04609 whole entry, species assumed) above

Kd (PSMA on LNCaP cells [1]) | Structure (SMILES) | Ki (PSMA) | also measured
0.171 µM | N[C@@H](CNC(=O)CC[C@H](NC(=O)N[C@@H](CCC(=O)O)C(=O)O)C(=O)O)C(=O)N[C@@H](CC(=O)O)C(=O)N[C@@H](CS)C(=O)O [0-atom linker] (H-[Dap]([γGlu-CO-Glu])-Asp-Cys-OH) |  | 
0.068 µM | N[C@@H](CNC(=O)[C@H](Cc1ccccc1)NC(=O)CC[C@H](NC(=O)CC[C@H](NC(=O)N[C@@H](CCC(=O)O)C(=O)O)C(=O)O)C(=O)O)C(=O)N[C@@H](CC(=O)O)C(=O)N[C@@H](CS)C(=O)O [7-atom linker] (H-[Dap]([Phe-γGlu-γGlu-CO-Glu])-Asp-Cys-OH) |  | 
0.04 µM | N[C@@H](CNC(=O)CC[C@H](NC(=O)[C@H](Cc1ccccc1)NC(=O)CCCCCCCNC(=O)CC[C@H](NC(=O)N[C@@H](CCC(=O)O)C(=O)O)C(=O)O)C(=O)O)C(=O)N[C@@H](CC(=O)O)C(=O)N[C@@H](CS)C(=O)O [16-atom linker] (H-[Dap]([γGlu-Phe-Aoc-γGlu-CO-Glu])-Asp-Cys-OH) |  | 
 | O=C(O)CCC(NC(=O)NC(CS)C(=O)O)C(=O)O (stereo not shown) [drawing 52 (R = H)] | 0.0069 µM | 
 | CC(C)(C)SCC(NC(=O)NC(CCC(=O)O)C(=O)O)C(=O)O (stereo not shown) [drawing 52 (R = tert-Bu)] | 0.029 µM | 

Structure (SMILES) | Kd (PSMA on LNCaP cells [1]) | Ki (PSMA) | also measured
N[C@@H](CNC(=O)[C@H](Cc1ccccc1)NC(=O)[C@H](Cc1ccccc1)NC(=O)CCCCCCCNC(=O)CC[C@H](NC(=O)N[C@@H](CCC(=O)O)C(=O)O)C(=O)O)C(=O)N[C@@H](CC(=O)O)C(=O)N[C@@H](CS)C(=O)O [SK28-^99mTc, metal not drawn] (H-[Dap]([Phe-Phe-Aoc-γGlu-CO-Glu])-Asp-Cys-OH) | 0.015 µM |  | cell bound radioactivity at saturation, 37° C. relative to 4° C. (PSMA on LNCaP cells [2]): approximately three; cell bound radioactivity at the saturation point (PSMA on LNCaP cells [2]; 4° C.): 12 000 cpm; cell bound radioactivity at the saturation point (PSMA on LNCaP cells [2]; 37° C.): 33,000 cpm; Kd (PSMA on LNCaP cells [3]): 0.0181 µM
